Here are results for one molecule from US20070225278A1, “Methods for treating cognitive and other disorders” (priority 2006, published 2007).

The test system of data set [1] is male Sprague Dawley CD rats. Kind of data set: Baseline PPI, compound administered alone. Format: in vivo, rat. The following applies: dose range that attenuates d-amphetamine and DOI deficits. The source says: Inter-trial intervals averaged 15 s.
The next data set has as its system male Sprague-Dawley rats. Format: in vivo, rat. The note with it: minimal dose at which sexual dysfunction occurs, male rats. From the text: In summary, male rats were allowed access to sexually receptive females during a single overnight mating session and then administered antidepressants with varying degrees of clinically reported sexual deficits. […] Animals
Intact male Sprague-Dawley rats (Charles River Laboratories) arrived at 7 weeks of age and were allowed to habituate for one week prior to sexual experience or behavioral testing. Rats were group housed in same-sex colony rooms with food and water provided ad libitum. All animals were maintained under a 12:12 light-dark cycle (lights on at 6:00 am) with behavioral experiments performed during the light hours beginning at noon.
Ovariectomized female Long-Evans rats (Charles River Laboratories) were individually housed and brought into behavioral estrus weekly by subcutaneous injection of 25 ug 17-B estradiol benzoate in 0.1 ml corn oil 48 hours prior to testing, followed by subcutaneous administration of 2.5 mg progesterone in 0.1 ml corn oil 4 to 6 hours before testing.
For subjects assigned into the sexually experienced group, the following procedures were performed. Individual male rats were placed into the home cage of a a sexually receptive female for overnight mating sessions. The cage was a Plexiglas cage measuring 10×12 inches, with food and water ad libitum. Mating pairs were randomly assigned. […] Following overnight mating sessions, males and females were separated from each other and placed back into same-sex colony rooms where they were group-housed until the time of behavioral testing.
To determine the effects of female stimuli on non-contact penile erections, sexually receptive females were brought into the testing room 30 minutes prior to the start of behavioral testing in order to provide female visual, olfactory, and auditory stimuli for males. The testing arena for observing non-contact penile erections in male rats consisted of an empty rat size Plexiglas cage (11×10 inches) containing no bedding, with an aerated plastic lid and a total ceiling height of 12 inches. […] A penile erection consisted of observation of the male rat in a hunched position grasping the penis with the forepaws and followed by a series of pelvic thrusts. The number of penile erections were quantified over a 30 minute observation session.
Following sexual experience (as described above), male subjects (n=8 per group) were administered either 10 mg/kg/day fluoxetine or saline vehicle for 14 days. On the 14th day, fluoxetine treatment was co-administered with either saline or apomorphine (0.1-0.3 mg/kg, sc) or yohimbine (0.1-0.3 mg/kg, sc) or sildenafil (0.1-0.3 mg/kg, sc) in separate experiments. Non-contact penile erections were evaluated in 30 minute test sessions in the presence of sexually receptive female rats.
Fluoxetine HCl (Tocris), desipramine (Sigma, St. Louis, Mo.) and bupropion HCl (Toronto Research Chemicals, Canada) were dissolved in 0.9% sterile saline vehicle and injected intraperitoneally (i.p.) once daily. On the day of behavioral testing, antidepressants were administered intraperitoneally (i.p.) as one hour pretreatments. For reversal experiments, apomorphine (Sigma, St. Louis, Mo.), yohimbine (Sigma, St. Louis, Mo.) or sildenafil (Toronto Research Chemicals, Canada) were used. Apomorphine was dissolved in 0.9% sterile saline vehicle and injected subcutaneously (s.c.). Yohimbine was dissolved in dH2O facilitated with 1N HCl, followed by addition of 1N NaOH for titration (pH=7) and administered intraperitoneally (i.p.). Sildenafil was dissolved in 0.9% sterile saline vehicle and administered intraperitoneally (i.p.). With the exception of fluoxetine which was administered in a dose volume of 2 ml/kg, all other test compounds were administered in a dose volume of 1 ml/kg. On the day of behavioral testing, both fluoxetine and the reversal agent (apomorphine, yohimbine, or sildenafil) were co-administered as 0 minute pretreatments. […]

Data set [2] concerns acetylcholine in medial prefrontal cortex. Kind of data set: In vivo microdialysis, acetylcholine in medial prefrontal cortex. The following applies: 17 mg/kg s.c., rat. On the procedure: Animals: Adult male Sprague-Dawley rats (Charles River, Wilmington, Mass.) weighing 280-350 g at the time of surgery were used for all microdialysis experiments. Adult male Long-Evans rats (Charles River, Wilmington, Mass.) weighing 180-220 g were used for NOR studies. Rats were housed individually for recognition memory studies. All animals had free access to food and water and were group housed in the AAALAC-accredited facility that was maintained on a 12 h light dark cycle (lights on at 0600 h) for at least 1 week prior to surgery or behavioral testing. All in vivo studies were performed in accordance to the ‘Guide for the Care and Use of Laboratory Animals’ as adopted and promulgated by the National Institutes of Health (Pub. 85-23, 1985). […]
Analysis of Acetylcholine Dialysate levels of acetylcholine were determined using LC/MS/MS. […]
Acetylcholine data were quantified using peak area against an internal standard and acquired using Masslynx software (Micromass, Beverly, Mass., USA). The mean of the concentration of baseline samples was calculated and denoted as 0%. All sample values were expressed as a percent change from this pre-injection mean baseline value (% change from baseline). Neurochemical data, excluding pre-injection values, were analyzed by a two-way analysis of variance (ANOVA) with repeated measures (time). […]

Each structure is given as a SMILES string.

`c1cc2c3c(c1)[C@H]1CCC[C@H]1N3CCNC2` [Compound 1]: the “effect on baseline PPI when administered alone” value in data set [1] was “no effect”. In addition, the “Sexual dysfunction (MED mg/kg)” value in the data set with male Sprague-Dawley rats is “≧10 mg/kg”. The “maximal increase in acetylcholine with respect to baseline” value in data set [2] worked out at 63%.
